Laboratory results reported in patent US20230391774A1, “Novel Compounds” (AC Immune SA, priority 2020, published 2023).
Structures can show the parent of a compound that is named as a salt.

Tests used:
[1] = biological target: T1, Tau K18 fragment aggregates (amino acids 244 to 372 of human Tau441) (Homo sapiens, UniProt P10636); assay: Tau K18 disaggregation assay by ThT; assay type: biochemical; details: ThT fluorescence; 2 μM K18 aggregates, 30 minutes at RT
T1 construct: encompassing amino acids 244 to 372 of the longest isoform (2N4R) of human Tau441; purchased Biotechne; host or cells: bacteria
Description: Tau K18 Disaggregation Assay by ThT
The Tau K18 fragment, encompassing amino acids 244 to 372 of the longest isoform (2N4R) of human Tau441, was expressed in bacteria and purified (Biotechne). For the K18 disaggregation assay by ThT, 35 μM of recombinant K18 in PBS were aggregated for 24 hours at 37° C. in presence of 25 μM of heparin (Sigma-Aldrich) and 10 mM of 1,4-Dithiothreito (DTT from Sigma-Aldrich) under shaking at 750 RPM. Compound 1 was dissolved in anhydrous dimethyl sulfoxide (DMSO, Sigma-Aldrich) to reach a concentration of 10 mM. K18 aggregates and serial dilutions of compounds were mixed together in PBS (volume 50 μL) to a final concentration of 2 μM of K18 aggregates and from 400 to 0.1 μM of Compound 1. The mixture was incubated for 30 minutes at room temperature (RT), then 40 μL of this mixture were transferred into a black 384-well plate assay (Perkin-Elmer) and mixed with 10 μL of 100 μM ThT in 250 mM glycine (both from Sigma-Aldrich) in PBS. Fluorescence (relative fluorescence units; RFU) was measured in monoplicate or duplicate on a Tecan reader (excitation: 440 nm; emission: 485 nm). Percentage of K18 disaggregation was then calculated and half maximal effective concentration (EC50) was determined using GraphPad Prism version 8 (GraphPad Software) assuming a one-binding site fitting model, see Table 3 and Table 4.

[2] = biological target: T2, flTau aggregates (longest isoform of human Tau, 2N4R) (Homo sapiens, UniProt P10636); assay: Full-length Tau (flTau) disaggregation assay by Thioflavin T (ThT); assay type: biochemical; details: ThT fluorescence; 60 nM flTau aggregates, 30 minutes at RT; read-out: flTau disaggregation EC50
T2 construct: 35 μM of recombinant full-length (fl) Tau in phosphate-buffered saline (PBS) were aggregated; purchased Biotechne; host or cells: bacteria
Description: Full-Length Tau (flTau) Disaggregation Assay by Thioflavin T (ThT)
The longest isoform of human Tau (2N4R; 441 amino acids) was expressed in bacteria and purified (Biotechne). For the Tau disaggregation assay by ThT, 35 μM of recombinant full-length (fl) Tau in phosphate-buffered saline (PBS) were aggregated for 72 hours at 37° C. in presence of 35 μM of heparin (Sigma-Aldrich) and 10 mM of […] (Sigma-Aldrich) under shaking at 1000 RPM. Compound 1 was dissolved in anhydrous dimethyl sulfoxide (DMSO, Sigma-Aldrich) to reach a concentration of 2.5 mM. flTau aggregates and serial dilutions of compound 1 were mixed together in PBS (volume 50 μL) to a final concentration of 60 nM of flTau aggregates and from 20 to 0.0012 μM of Compound 1. The mixture was incubated for 30 minutes at room temperature (RT), then 40 μL of this mixture were transferred into a black 384-well plate assay (Perkin-Elmer) and mixed with 10 μL of 20 μM ThT in 250 mM glycine (both from Sigma-Aldrich) in PBS. Fluorescence (relative fluorescence units; RFU) was measured in monoplicate or duplicate on a Tecan reader (excitation: 440 nm; emission: 485 nm). Percentage of flTau disaggregation was then calculated and the half maximal effective concentration (EC50) was determined using GraphPad Prism version 8 (GraphPad Software) assuming a one-binding site fitting model, see Table 3 and Table 4.

T1 sequence (P10636 561-689): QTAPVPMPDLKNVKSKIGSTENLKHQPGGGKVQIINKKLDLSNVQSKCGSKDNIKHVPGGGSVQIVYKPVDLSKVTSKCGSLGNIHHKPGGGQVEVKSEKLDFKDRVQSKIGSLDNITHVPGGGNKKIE
T2 sequence (P10636 1-441 isoform P10636-8): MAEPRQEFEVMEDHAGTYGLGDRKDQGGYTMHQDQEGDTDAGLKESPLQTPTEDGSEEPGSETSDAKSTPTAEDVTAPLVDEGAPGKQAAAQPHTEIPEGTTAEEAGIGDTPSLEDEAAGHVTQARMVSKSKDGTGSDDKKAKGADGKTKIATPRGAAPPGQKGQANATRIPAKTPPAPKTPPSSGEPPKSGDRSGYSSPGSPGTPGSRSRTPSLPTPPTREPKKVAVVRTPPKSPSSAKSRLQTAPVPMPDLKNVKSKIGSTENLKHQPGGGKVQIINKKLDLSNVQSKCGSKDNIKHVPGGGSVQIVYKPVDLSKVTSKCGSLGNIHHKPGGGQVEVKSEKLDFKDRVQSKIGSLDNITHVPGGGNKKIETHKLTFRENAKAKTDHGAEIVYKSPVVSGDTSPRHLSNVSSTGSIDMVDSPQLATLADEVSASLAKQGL

| EC50 [1] | EC50 [2] | Structure (SMILES) |
| --- | --- | --- |
| < 1 µM | < 1 µM | O=C(Nc1c[nH]c2ccccc12)c1ccc2oc(N3CCOCC3)nc2c1 [Example 7, N-(1H-indol-3-yl)-2-morpholinobenzo[d]oxazole-5-carboxamide] |
| < 1 µM | < 1 µM | c1ccc2c(-c3cnn(-c4ccc5oc(N6CCOCC6)nc5c4)c3)c[nH]c2c1 [Example 9, 5-(4-(1H-indol-3-yl)-1H-pyrazol-1-yl)-2-morpholinobenzo[d]oxazole] |
| 1 to 10 µM | < 1 µM | O=C(Nc1ccc2nc(N3CCOCC3)sc2c1)c1c[nH]c2ccc(F)cc12 [Example 17, 5-fluoro-N-(2-morpholinobenzo[d]thiazol-6-yl)-1H-indole-3-carboxamide] |
| 1 to 10 µM | 1 to 10 µM | c1ccc2c(C3CCN(c4ccc5oc(N6CCOCC6)nc5c4)CC3)c[nH]c2c1 [Example 19, 5-(4-(1H-indol-3-yl)piperidin-1-yl)-2-morpholinobenzo[d]oxazole] |
| 1 to 10 µM | < 1 µM | c1cnc2[nH]cc(C3CCN(c4ccc5oc(N6CCOCC6)nc5c4)CC3)c2c1 [Example 20, 5-(4-(1H-pyrrolo[2,3-b]pyridin-3-yl)piperidin-1-yl)-2-morpholinobenzo[d]oxazole] |
| < 1 µM | < 1 µM | c1ccc2c(C3CCN(c4cc5sc(N6CCOCC6)nc5cn4)CC3)c[nH]c2c1 [Example 24, 4-(6-(4-(1H-indol-3-yl)piperidin-1-yl)thiazolo[4,5-c]pyridin-2-yl)morpholine] |
| 1 to 10 µM | < 1 µM | Cn1cc(C2=CCN(c3ccc4oc(N5CCOCC5)nc4c3)CC2)c2cc(F)cnc21 [Example 32, 5-(4-(5-fluoro-1-methyl-1H-pyrrolo[2,3-b]pyridin-3-yl)-3,6-dihydropyridin-1(2H)-yl)-2-morpholinobenzo[d]oxazole] |
| 1 to 10 µM | 1 to 10 µM | Cn1cc(C2CCN(c3ccc4oc(N5CCOCC5)nc4c3)C2)c2cc(F)cnc21 (stereo not drawn) [Example 33, 5-(3-(5-fluoro-1-methyl-1H-pyrrolo[2,3-b]pyridin-3-yl)pyrrolidin-1-yl)-2-morpholinobenzo[d]oxazole] |
| 1 to 10 µM | 1 to 10 µM | c1ccc2c(C3CCN(c4cc5sc(N6CCOCC6)nc5cn4)CC3)n[nH]c2c1 [Example 35, 4-(6-(4-(1H-indazol-3-yl)piperidin-1-yl)thiazolo[4,5-c]pyridin-2-yl)morpholine] |
| 10 to 50 µM | 1 to 10 µM | c1ccc2c(Nc3ccc4oc(N5CCOCC5)nc4c3)n[nH]c2c1 [Example 36, N-(1H-indazol-3-yl)-2-morpholinobenzo[d]oxazol-5-amine] |
| < 1 µM | 1 to 10 µM | c1ccc2c(C3CCN(c4ccc5oc(N6CCOCC6)nc5c4)C3)n[nH]c2c1 (stereo not drawn) [Example 37, 5-(3-(1H-indazol-3-yl)pyrrolidin-1-yl)-2-morpholinobenzo[d]oxazole] |
| 10 to 50 µM | – | c1ccc2c(C3CCN(c4cnc5sc(N6CCOCC6)nc5c4)CC3)n[nH]c2c1 [Example 42, 4-(6-(4-(1H-indazol-3-yl)piperidin-1-yl)thiazolo[5,4-b]pyridin-2-yl)morpholine] |
| 10 to 50 µM | – | c1ccc2c(C3CCN(c4ccc5nc(N6CCOCC6)oc5c4)CC3)c[nH]c2c1 [Example 52, 6-(4-(1H-indol-3-yl)piperidin-1-yl)-2-morpholinobenzo[d]oxazole] |
| 1 to 10 µM | – | Fc1cnc2c(C3CCN(c4ccc5oc(N6CCOCC6)nc5c4)CC3)c[nH]c2c1 [Example 53, 5-(4-(6-fluoro-1H-pyrrolo[3,2-b]pyridin-3-yl)piperidin-1-yl)-2-morpholinobenzo[d]oxazole] |
| 10 to 50 µM | – | c1cc2c(C3CCN(c4ccc5oc(N6CCOCC6)nc5c4)CC3)c[nH]c2cn1 [Example 54, 5-(4-(1H-pyrrolo[2,3-c]pyridin-3-yl)piperidin-1-yl)-2-morpholinobenzo[d]oxazole] |
| 1 to 10 µM | – | c1cc2[nH]cc(C3CCN(c4ccc5oc(N6CCOCC6)nc5c4)CC3)c2cn1 [Example 55, 5-(4-(1H-pyrrolo[3,2-c]pyridin-3-yl)piperidin-1-yl)-2-morpholinobenzo[d]oxazole] |

| EC50 [1] | EC50 [2] | Structure (SMILES) |
| --- | --- | --- |
| 1 to 10 µM | – | c1ccc2c(N3CCN(c4ccc5oc(N6CCOCC6)nc5c4)CC3)c[nH]c2c1 [Example 56, 5-(4-(1H-indol-3-yl)piperazin-1-yl)-2-morpholinobenzo[d]oxazole] |
| 10 to 50 µM | – | Cn1cc(C2CCN(c3ccc4nc(N5CCOCC5)sc4n3)CC2)c2cc(F)cnc21 [Example 57, 4-(5-(4-(5-fluoro-1-methyl-1H-pyrrolo[2,3-b]pyridin-3-yl)piperidin-1-yl)thiazolo[5,4-b]pyridin-2-yl)morpholine] |
| 10 to 50 µM | – | c1ccc2c(C3CCN(c4cc5oc(N6CCOCC6)nc5cn4)CC3)c[nH]c2c1 [Example 58, 6-(4-(1H-indol-3-yl)piperidin-1-yl)-2-morpholinooxazolo[4,5-c]pyridine] |
| 1 to 10 µM | – | c1ccn2c(C3CCN(c4ccc5nc(N6CCOCC6)oc5c4)CC3)cnc2c1 [Example 59, 6-(4-(imidazo[1,2-a]pyridin-3-yl)piperidin-1-yl)-2-morpholinobenzo[d]oxazole] |
| 1 to 10 µM | – | c1ccc2c(C3CCN(c4ccc5sc(N6CCOCC6)nc5n4)CC3)n[nH]c2c1 [Example 62, 4-(5-(4-(1H-indazol-3-yl)piperidin-1-yl)thiazolo[4,5-b]pyridin-2-yl)morpholine] |
| 10 to 50 µM | – | c1ccc2c(C3CCN(c4ccc5sc(N6CCOCC6)nc5c4)CC3)n[nH]c2c1 [Example 63, 4-(5-(4-(1H-indazol-3-yl)piperidin-1-yl)benzo[d]thiazol-2-yl)morpholine] |
| 1 to 10 µM | – | c1ccc2c(C3CCN(c4ccc5nc(N6CCOCC6)oc5n4)CC3)n[nH]c2c1 [Example 64, 5-(4-(1H-indazol-3-yl)piperidin-1-yl)-2-morpholinooxazolo[5,4-b]pyridine] |
| 1 to 10 µM | – | c1ccc2c(C3CCN(c4cnc5sc(N6CCOCC6)nc5c4)CC3)c[nH]c2c1 [Example 65, 4-(6-(4-(1H-indol-3-yl)piperidin-1-yl)thiazolo[5,4-b]pyridin-2-yl)morpholine] |
| < 1 µM | – | c1ccc2c(C3CCN(c4cc5nc(N6CCOCC6)sc5cn4)CC3)n[nH]c2c1 [Example 66, 4-(6-(4-(1H-indazol-3-yl)piperidin-1-yl)thiazolo[5,4-c]pyridin-2-yl)morpholine] |
| < 1 µM | – | c1ccc2c(C3CCN(c4cc5nc(N6CCOCC6)sc5cn4)CC3)c[nH]c2c1 [Example 67, 4-(6-(4-(1H-indol-3-yl)piperidin-1-yl)thiazolo[5,4-c]pyridin-2-yl)morpholine] |
| 1 to 10 µM | – | Fc1ccc2[nH]cc(C3CCN(c4ccc5oc(N6CCOCC6)nc5c4)CC3)c2c1 [Example 69, 5-(4-(5-fluoro-1H-indol-3-yl)piperidin-1-yl)-2-morpholinobenzo[d]oxazole] |
| 10 to 50 µM | – | c1ccc2c(C3CCN(c4ccc5nc(N6CCOCC6)oc5n4)CC3)c[nH]c2c1 [Example 101, 5-(4-(1H-indol-3-yl)piperidin-1-yl)-2-morpholinooxazolo[5,4-b]pyridine] |
| 1 to 10 µM | – | Fc1cnc2c(C3CCN(c4ccc5nc(N6CCOCC6)oc5c4)CC3)c[nH]c2c1 [Example 103, 6-(4-(6-fluoro-1H-pyrrolo[3,2-b]pyridin-3-yl)piperidin-1-yl)-2-morpholinobenzo[d]oxazole] |
| 10 to 50 µM | – | c1ccc2c(C3CCN(c4ccc5nc(N6CCOCC6)sc5n4)CC3)c[nH]c2c1 [Example 108, 4-(5-(4-(1H-indol-3-yl)piperidin-1-yl)thiazolo[5,4-b]pyridin-2-yl)morpholine hydrochloride] |
| 1 to 10 µM | – | Cn1cc(C2CC3CN(c4ccc5oc(N6CCOCC6)nc5c4)CC3C2)c2cc(F)cnc21 (stereo not drawn) [Example 112, 5-(5-(5-fluoro-1-methyl-1H-pyrrolo[2,3-b]pyridin-3-yl)hexahydrocyclopenta[c]pyrrol-2(1H)-yl)-2-morpholinobenzo[d]oxazole hydrochloride] |
